In US5824657A, “Aminoacyl sulfamides for the treatment of hyperproliferative disorders” (priority 1997, dated 1998):
Where two headings read alike, the source gives them in different places.

Legend:
[1] = test system: human epidermoid carcinoma cell line A-253 (ATCC HTB 41); assay: MTT assay, human epidermoid carcinoma cell line; type: cell-based; settings: read-out: IC50 Human Epidermoid Carcinoma Cells ATCC # HTB 41
Method: The MTT assay was used as a model to measure the inhibitory effects of the compounds of Formula I. The MTT assay is considered the most convenient modern assay for the determination of cell viability and cell proliferation. An MTT assay kit is commercially available (Chemicon International Inc., Temecula, Calif.). The MTT assay was performed according to manufacturer's instructions as outlined below.
A human epidermoid carcinoma cell line, designated as A-253 (ATCC HTB 41), was obtained in frozen vials from the American Type Culture Collection, Rockville, Md. Monolayer cultures were established from the vials by growth in RPMI 1640 medium supplemented with 10% fetal bovine serum (heat-inactivated), 2 mM L-glutamine, and pen-strep (100 units/ml; 100 μg/ml). The cultures were incubated at 37±1.5° C. in 5±1% CO2 in humidified air and were passaged weekly to avoid overgrowth. The laboratory cultures used for the present study were at passage seven after receipt of frozen stocks from ATCC.
Compounds of Formula I in powder form were stored at room temperature in plastic micro centrifuge tubes. Each tube was placed in a plastic bag containing desiccant. Each test compound was prepared as a 2 mg/ml solution in RPMI 1640 medium (non-supplemented) on the day of use, and the appropriate dilutions were prepared with the same vehicle.
Each compound was handled by sterile techniques in Class II, Type B biological safety cabinets.
The reference control compound was methotrexate at concentrations of 0.5 μg/ml to 50 μg/ml. A 1 mg/ml stock was prepared on the day of dosing and diluted to the appropriate concentrations using RPMI 1640 medium (non-supplemented).
A blank control was included in the MTT assay in order to determine the absorbance associated with the absence of any cells. This control was RPMI 1640 culture medium carried through the same procedures used to culture the cells in the microwell plates and to conduct the MTT assay color development. The microwell plate reader was zeroed against the blank control prior to recording the absorbance in the test wells.
Laboratory monolayer cultures of A-253 cells were trypsinized and seeded at a concentration of 24,000 cells in 0.05 ml of complete RPMI 1640 culture medium per well in 96-well plates. Eight wells in a column were seeded for each test condition. The blank control was prepared by adding 0.05 ml of culture medium (no cells) to 8 wells in the first column of each plate. A separate microwell plate was used for each compound of Formula I.
The test compound treatments were initiated immediately after seeding the cells by adding 0.05 ml of treatment medium to each microwell. Ten different test compound concentrations were prepared in culture medium (without serum), and each concentration was applied to a volume of eight wells on the appropriate plate. The final concentrations in the wells were 1000, 500, 250, 100, 50, 25, 10, 5, 2.5, and 1 μg/ml.
An untreated (zero-dose) condition was included as a column of 8 wells on each plate. The zero-dose and blank control wells received 0.05 ml of culture medium (without serum). The microwell plates were placed in an incubator at 37±1.5° C. in 5% CO2 in humidified air for an exposure period of 72±0.5 hours.
After the exposure period, 0.1 ml of MTT dye solution (0.5 mg/ml in serum free RPMI 1640 medium) was added to each micowell. The cultures were returned to the incubator for 2±0.1 hours. Then the medium was removed from each well and placed into a clean microwell plate for temporary storage. A volume of 0.1 ml of color development solution (Solution C, isopropanol with 0.04M HCl, Chemicon MTT Assay kit, Chemicon International Inc., Temecula, Calif.) was added to each new microwell. The contents were carefully mixed and allowed to sit at room temperature for approximately 1 hour. The medium that was saved from each microwell then was pipetted back into the well from which it originally came. […]

[2] = test system: aminoacyl-tRNA synthetases (aaRS) isolated from HeLa cells; assay: IC50 determination, aaRS charging and trichloroacetic acid precipitation assay, aaRS partially purified from HeLa cell extracts; type: biochemical; settings: preincubation 20 minutes at 25° C., reaction 5-20 minutes
Method: IC50 determinations for the aminoacyl-tRNA synthetases (aaRS) isolated from HeLa cells were carried out using a modification of the aaRS charging and trichloroacetic acid precipitation assay described previously (see examples: D. Kern et. al., Biochemie, 61, 1257-1272 (1979) and J. Gilbart et. al. Antimicrobial Agents and Chemotherapy, 37(1), 32-38 (1993)). […] For practical purposes, the minimal acceptable value is approximately 2000 cpm per 10 minute reaction. The final dilution of the HeLa extract in the assays for the aaRS enzymes varies from 50 to 1200-fold.
Test compounds were typically present as serial dilutions in concentrations ranging from 0.35 nM to 35 μM. Test compound solutions were prepared by dissolving test compounds in 100% dimethyl sulfoxide and diluting to the final concentration with 50 mM HEPES, pH 7.5. IC50 determinations were typically performed in duplicate with each experiment containing 4-8 concentrations of test compound and with duplicate controls containing no inhibitor.
The reaction was incubated at 25° C. for 5-20 minutes. At specified time points a 15 microliter aliquot was removed and added to a well of a Millipore filtration plate (Multiscreen-FB, MAFB NOB 10) containing 100 microliters of cold 5% (wt/vol) trichloroacetic acid. Trichloroacitic acid precipitable material was collected by filtration on a Millipore Multiscreen filtration station, washed twice with cold 5% trichloroacetic acid, twice with water, and dried. Plates were typically allowed to air dry for several hours or baked at 50° C. in a vacuum oven for 30 minutes. The radioactivity on the dried plates was quantitated by the addition of Packard Microscint-20 to the wells and counting with a Packard TopCount scintillation counter.
Inhibitor activity typically was reported as a percentage of the control aaRS activity. […] The IC50 (in nM, Hela Cells) values of representative compounds of the present invention are listed in column 5 of Table I.

[3] = test system: normal human skin fibroblasts cell line ATCC CRL 1501; assay: MTT assay, normal skin fibroblasts; type: cell-based; settings: Skin fibroblast, similar manner to HTB 41 assay
Method: The MTT assay was used as a model to measure the inhibitory effects of the compounds of Formula I. The MTT assay is considered the most convenient modern assay for the determination of cell viability and cell proliferation. […] The MTT assay was performed according to manufacturer's instructions as outlined below.
The cultures were returned to the incubator for 2±0.1 hours. Then the medium was removed from each well and placed into a clean microwell plate for temporary storage. A volume of 0.1 ml of color development solution (Solution C, isopropanol with 0.04M HCl, Chemicon MTT Assay kit, Chemicon International Inc., Temecula, Calif.) was added to each new microwell. […] The absorbance at 540 nm wavelength was determined in a microwell plate reader within two hours of the final preparation of the plates.
The absorbance at 540 nm was recorded for each well by the microwell plate reader after the instrument was zeroed against the blank controls for each plate. The mean absorbance for each test condition was calculated and compared to the mean absorbance for the zero-dose wells in order to obtain percent values. […]

[4] = test system: Gram positive bacterial pathogens such as Staphylococcus aureus; settings: cited from earlier work
[5] = test system: isoleucyl-tRNA synthetase; settings: cited from earlier work
[6] = A253, MTT assay, exposure 72 hours, plot extended by eye for compounds active at lowest dose

SMILES | IC50 [1, 6] [nM] | IC50 [2] [nM] | also measured
Nc1ncnc2c1ncn2[C@@H]1O[C@H](CNS(=O)(=O)NC(=O)[C@@H](N)CCC(=O)O)[C@@H](O)[C@H]1O [XII] | 10500 |  | 
Nc1ncnc2c1ncn2[C@@H]1O[C@H](CNS(=O)(=O)NC(=O)[C@@H](N)Cc2c[nH]cn2)[C@@H](O)[C@H]1O [XIII] | 2690 | 2 | 
C[C@@H](O)[C@H](N)C(=O)NS(=O)(=O)NC[C@H]1O[C@@H](n2cnc3c(N)ncnc32)[C@H](O)[C@@H]1O [XVIII] | 9630 | 40 | 
CC1=C(/C=C/C(C)=C/C=C/C(C)=C/C(=O)O)C(C)(C)CCC1 [Retinoic acid, reference compound] |  |  | IC50 ([1]; A253, 72 h): 266000 nM
N=C(N)NCCC[C@H](N)C(=O)NS(=O)(=O)NC[C@H]1O[C@@H](n2cnc3c(N)ncnc32)[C@H](O)[C@@H]1O [XVII] | 3990 | 14 | 
NCC(=O)NS(=O)(=O)NC[C@H]1O[C@@H](n2cnc3c(N)ncnc32)[C@H](O)[C@@H]1O [IX] | 1490 | 50 | 
CC[C@H](C)[C@H](N)C(=O)NS(=O)(=O)NC[C@H]1O[C@@H](n2cnc3c(N)ncnc32)[C@H](O)[C@@H]1O [I] | 3050 | 0.9 | 
Nc1ncnc2c1ncn2[C@@H]1O[C@H](CNS(=O)(=O)NC(=O)[C@@H]2CCCN2)[C@@H](O)[C@H]1O [XV] | 900 | 1 | 
NCCCC[C@H](N)C(=O)NS(=O)(=O)NC[C@H]1O[C@@H](n2cnc3c(N)ncnc32)[C@H](O)[C@@H]1O [Compound XI] | 2530 | 8 | 
Nc1ncnc2c1ncn2[C@@H]1O[C@H](CNS(=O)(=O)NC(=O)[C@@H](N)CO)[C@@H](O)[C@H]1O [VI, 5'-deoxy-adenosine 5'-N-(N-L-seryl)sulfamide] | 9250 | 140 | 
Nc1ncnc2c1ncn2[C@@H]1O[C@H](CNS(=O)(=O)NC(=O)[C@@H](N)Cc2ccc(O)cc2)[C@@H](O)[C@H]1O [V] | 790 | 17 | 
C[C@H](N)C(=O)NS(=O)(=O)NC[C@H]1O[C@@H](n2cnc3c(N)ncnc32)[C@H](O)[C@@H]1O [VII] | 1440 | 22 | 
Nc1ncnc2c1ncn2[C@@H]1O[C@H](CNS(=O)(=O)NC(=O)[C@@H](N)Cc2c[nH]c3ccccc23)[C@@H](O)[C@H]1O [Compound X, 5'-deoxy-adenosine 5'-N-(N-L-tryptophanyl)sulfamide] | 530 | 300 | IC50 [3]: 80 nM
CC(C)C[C@H](N)C(=O)NS(=O)(=O)NC[C@H]1O[C@@H](n2cnc3c(N)ncnc32)[C@H](O)[C@@H]1O [III] | 1370 | 0.5 | IC50 [3]: 13000 nM
CN(Cc1cnc2nc(N)nc(N)c2n1)c1ccc(C(=O)N[C@@H](CCC(=O)O)C(=O)O)cc1 [Methotrexate, reference compound] |  |  | IC50 ([1]; A253, 72 h): 40 nM
CC(C)[C@H](N)C(=O)NS(=O)(=O)NC[C@H]1O[C@@H](n2cnc3c(N)ncnc32)[C@H](O)[C@@H]1O [II] | 4950 | 27 | 
Nc1ncnc2c1ncn2[C@@H]1O[C@H](CNS(=O)(=O)NC(=O)[C@@H](N)CC(=O)O)[C@@H](O)[C@H]1O [VIII] | 5000 | 174 | 
NC(=O)CC[C@H](N)C(=O)NS(=O)(=O)NC[C@H]1O[C@@H](n2cnc3c(N)ncnc32)[C@H](O)[C@@H]1O [XVI] | 3590 | 400 | 
CSCC[C@H](N)C(=O)NS(=O)(=O)NC[C@H]1O[C@@H](n2cnc3c(N)ncnc32)[C@H](O)[C@@H]1O [IV] | 1050 | 3 | 
CC(=CC(=O)OCCCCCCCCC(=O)O)CC1OCC(CC2OC2C(C)C(C)O)C(O)C1O (stereo not drawn) [Pseudomonic acid A] |  |  | inhibition of protein synthesis and growth [4]: inhibition of protein synthesis, followed by growth inhibition; inhibition of isoleucyl adenylate formation [5]: inhibits isoleucyl adenylate formation
